Test [1] has as its target T1, Serine/threonine-protein kinase Nek1 (Homo sapiens, UniProt Q96PY6).
T1 sequence (Q96PY6 whole entry): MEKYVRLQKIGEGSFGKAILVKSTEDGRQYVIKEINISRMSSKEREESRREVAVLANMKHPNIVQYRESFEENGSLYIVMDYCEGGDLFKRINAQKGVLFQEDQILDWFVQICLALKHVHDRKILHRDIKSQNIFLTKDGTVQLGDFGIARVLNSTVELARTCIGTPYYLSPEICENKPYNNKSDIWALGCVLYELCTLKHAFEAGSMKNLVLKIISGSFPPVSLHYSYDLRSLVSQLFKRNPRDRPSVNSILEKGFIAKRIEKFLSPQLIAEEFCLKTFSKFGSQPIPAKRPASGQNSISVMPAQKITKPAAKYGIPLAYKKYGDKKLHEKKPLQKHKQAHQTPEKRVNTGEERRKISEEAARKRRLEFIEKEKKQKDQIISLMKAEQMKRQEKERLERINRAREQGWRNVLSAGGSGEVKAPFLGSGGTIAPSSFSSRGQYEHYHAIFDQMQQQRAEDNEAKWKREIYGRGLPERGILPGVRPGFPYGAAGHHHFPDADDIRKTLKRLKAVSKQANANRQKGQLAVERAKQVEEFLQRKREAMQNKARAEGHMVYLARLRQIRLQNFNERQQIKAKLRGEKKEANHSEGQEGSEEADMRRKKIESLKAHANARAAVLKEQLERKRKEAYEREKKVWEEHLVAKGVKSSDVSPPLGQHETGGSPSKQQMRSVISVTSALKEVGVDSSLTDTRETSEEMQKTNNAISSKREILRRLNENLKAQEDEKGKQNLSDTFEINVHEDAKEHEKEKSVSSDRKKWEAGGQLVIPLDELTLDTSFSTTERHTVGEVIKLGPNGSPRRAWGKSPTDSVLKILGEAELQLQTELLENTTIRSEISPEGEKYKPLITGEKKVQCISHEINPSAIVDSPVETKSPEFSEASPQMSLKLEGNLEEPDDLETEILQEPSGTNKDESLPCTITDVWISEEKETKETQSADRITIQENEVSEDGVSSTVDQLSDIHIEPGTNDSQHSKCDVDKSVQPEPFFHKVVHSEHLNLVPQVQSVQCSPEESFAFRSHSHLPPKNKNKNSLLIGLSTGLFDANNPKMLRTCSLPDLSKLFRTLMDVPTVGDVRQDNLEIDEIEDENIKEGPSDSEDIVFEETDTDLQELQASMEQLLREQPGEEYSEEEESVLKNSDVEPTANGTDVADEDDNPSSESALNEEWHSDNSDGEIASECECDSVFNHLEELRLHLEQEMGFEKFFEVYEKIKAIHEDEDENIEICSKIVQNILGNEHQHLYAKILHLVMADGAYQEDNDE

In test [2] the target is Mitogen-activated protein kinase 3 (Homo sapiens, UniProt P27361).
Test [3] has as its target T2, Cyclin-G-associated kinase (Homo sapiens, UniProt O14976).
T2 sequence (O14976 whole entry): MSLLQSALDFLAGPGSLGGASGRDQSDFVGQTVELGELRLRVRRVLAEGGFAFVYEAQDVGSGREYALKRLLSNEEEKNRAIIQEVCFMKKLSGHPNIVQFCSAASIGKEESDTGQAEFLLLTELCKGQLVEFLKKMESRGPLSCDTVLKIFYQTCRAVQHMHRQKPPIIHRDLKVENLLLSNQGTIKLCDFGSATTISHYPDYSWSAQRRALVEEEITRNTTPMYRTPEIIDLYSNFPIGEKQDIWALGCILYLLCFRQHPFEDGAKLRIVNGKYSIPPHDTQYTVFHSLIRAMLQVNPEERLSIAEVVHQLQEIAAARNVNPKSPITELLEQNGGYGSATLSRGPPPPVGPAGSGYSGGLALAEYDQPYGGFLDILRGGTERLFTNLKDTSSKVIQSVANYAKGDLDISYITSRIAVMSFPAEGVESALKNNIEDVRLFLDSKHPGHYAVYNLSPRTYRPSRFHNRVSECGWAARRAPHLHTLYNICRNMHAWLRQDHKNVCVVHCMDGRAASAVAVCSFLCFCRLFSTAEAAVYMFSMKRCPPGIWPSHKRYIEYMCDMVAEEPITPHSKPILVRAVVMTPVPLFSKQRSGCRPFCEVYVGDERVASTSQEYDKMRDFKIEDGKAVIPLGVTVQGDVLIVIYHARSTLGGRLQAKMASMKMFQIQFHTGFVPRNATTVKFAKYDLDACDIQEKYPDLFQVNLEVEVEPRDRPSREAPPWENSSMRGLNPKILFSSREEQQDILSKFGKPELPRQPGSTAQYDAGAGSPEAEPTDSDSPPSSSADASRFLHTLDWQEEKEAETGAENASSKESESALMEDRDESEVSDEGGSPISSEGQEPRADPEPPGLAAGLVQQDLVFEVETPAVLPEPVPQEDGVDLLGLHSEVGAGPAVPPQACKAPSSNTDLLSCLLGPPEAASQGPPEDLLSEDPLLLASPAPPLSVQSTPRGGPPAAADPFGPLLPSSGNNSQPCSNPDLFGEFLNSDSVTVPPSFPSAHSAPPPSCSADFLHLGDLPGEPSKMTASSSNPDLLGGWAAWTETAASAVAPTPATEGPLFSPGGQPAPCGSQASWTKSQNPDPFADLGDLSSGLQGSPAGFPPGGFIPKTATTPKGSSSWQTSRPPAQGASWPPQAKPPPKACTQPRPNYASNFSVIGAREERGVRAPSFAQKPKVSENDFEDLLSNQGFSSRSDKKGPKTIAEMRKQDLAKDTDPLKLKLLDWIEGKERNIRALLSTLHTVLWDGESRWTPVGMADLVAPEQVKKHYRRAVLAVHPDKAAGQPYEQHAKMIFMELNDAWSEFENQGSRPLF

Structures can show the parent of a compound that is named as a salt. Active and inactive are the calls of the source. Bounds are passed on as bounds.
Further: in the data inactive means no Kd found up to 30 µM.

Mitogen-activated protein kinase 3, sequence (P27361 whole entry): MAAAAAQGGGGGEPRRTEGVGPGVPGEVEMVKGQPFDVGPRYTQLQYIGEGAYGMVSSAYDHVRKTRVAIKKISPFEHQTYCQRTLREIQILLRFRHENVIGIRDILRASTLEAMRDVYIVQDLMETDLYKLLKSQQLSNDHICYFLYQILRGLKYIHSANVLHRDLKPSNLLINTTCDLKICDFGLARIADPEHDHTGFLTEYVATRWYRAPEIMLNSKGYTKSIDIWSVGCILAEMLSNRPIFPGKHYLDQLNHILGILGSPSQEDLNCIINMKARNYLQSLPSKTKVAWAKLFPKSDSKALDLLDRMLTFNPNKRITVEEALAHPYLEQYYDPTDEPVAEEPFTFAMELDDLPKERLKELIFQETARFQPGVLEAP

Broadly, the Kd is a measure of binding affinity in units of concentration. Take `C[C@@H](Oc1cc(C(=O)Nc2ccc(C(=O)N3CCN(C)CC3)cc2)nnc1N)c1c(Cl)ccc(F)c1Cl`: the Kd in test [1], in test [2] and in test [3] was > 30 µM (inactive) throughout.
For `C[C@H]1CNCCCN1S(=O)(=O)c1cccc2cncc(F)c12`, the Kd in test [1], in test [2] and in test [3] was > 30 µM (inactive) in each case.
With `CC(=O)c1cnc2ccc(-c3cc(Cl)c(O)c(Cl)c3)nc2c1N[C@H]1CC[C@H](CN(C)C)CC1`, the Kd in test [1] is > 30 µM (inactive); in test [2], > 30 µM (inactive); in test [3], 0.005 µM (active).
For the compound `CCNC(=O)C#Cc1ccc2c(c1)NC(=O)/C2=C(\Nc1ccc(CN(C)C)cc1)c1ccccc1`, the Kd in test [1], in test [2] and in test [3] was > 30 µM (inactive) in each case.
Consider `C=CC(=O)N1CCC[C@H](n2c(=O)n(-c3ccc(Oc4ccccc4)cc3)c3c(N)ncnc32)C1`, for which the Kd in test [1], in test [2] and in test [3] was > 30 µM (inactive) throughout.
For the compound `Cc1nc2cc(-c3nn(C(C)C)c4ncnc(N)c34)ccc2o1`, the Kd in test [1], in test [2] and in test [3] was > 30 µM (inactive) throughout.
With `COCc1c(-c2ccc(NC(=O)Nc3cc(C(F)(F)F)ccc3F)c(F)c2)c2c(N)ncnn2c1CN1CCOCC1`, the Kd in test [1], in test [2] and in test [3] was > 30 µM (inactive) throughout.
On to `Nc1ncnc2c1c(-c1cccc(OCc3ccccc3)c1)cn2[C@H]1C[C@@H](CN2CCC2)C1` [AEW-541], for which the Kd in test [1], in test [2] and in test [3] was > 30 µM (inactive) throughout.
For `COc1cc(Nc2ncc3c(n2)-c2ccc(Cl)cc2C(c2c(F)cccc2OC)=NC3)ccc1C(=O)O` [ALISERTIB], the Kd in test [1], in test [2] and in test [3] was > 30 µM (inactive) throughout.
On to `Cc1nc(NC(=O)N2CCC[C@H]2C(N)=O)sc1-c1ccnc(C(C)(C)C(F)(F)F)c1` [ALPELISIB], for which the Kd in test [1] was > 30 µM (inactive); in test [2] it was > 30 µM (inactive); in test [3], 4.97 µM (active).
For `Cc1csc(-c2nnc(Nc3ccc(Oc4ncccc4-c4ccnc(N)n4)cc3)c3ccccc23)c1` [AMG-900], the Kd in test [1] was 2.38 µM (active); in test [2], > 30 µM (inactive); in test [3], > 30 µM (inactive).
For the compound `O=C(Nc1c[nH]nc1-c1nc2cc(CN3CCOCC3)ccc2[nH]1)NC1CC1` [AT-9283], the Kd in test [1] and in test [2] was > 30 µM (inactive) in each case.
For `C=CC(=O)Nc1cc2c(Nc3ccc(F)c(Cl)c3)ncnc2cc1C#CC(C)(C)N1CCN(C)CC1` [AV-412 FREE BASE], the Kd in test [1], in test [2] and in test [3] was > 30 µM (inactive) each time.
For `COc1cc([C@@H]2c3cc4c(cc3[C@H](O)[C@H]3COC(=O)[C@@H]23)OCO4)cc(OC)c1OC` [AXL-1717], the Kd in test [1], in test [2] and in test [3] was > 30 µM (inactive) throughout.
For the compound `NC(=O)Nc1cc(-c2cccc(F)c2)sc1C(=O)N[C@H]1CCCNC1` [AZD-7762], the results for the Kd in test [1], in test [2] and in test [3] were > 30 µM (inactive), > 30 µM (inactive) and 0.202 µM (active), respectively.
For the compound `Cc1cc(C(=O)NOCCO)c(Nc2ccc(I)cc2F)n(C)c1=O` [AZD-8330], the Kd in test [1], in test [2] and in test [3] was > 30 µM (inactive) throughout.
For `Cn1cnc2c(F)c(Nc3ccc(Br)cc3F)c(C(=O)NOCCO)cc21` [BINIMETINIB], the Kd in test [1], in test [2] and in test [3] was > 30 µM (inactive) in each case.
In the case of `CCn1c(C(=O)N(C2CC2)C2CC2)cc2c3c(ncn3C)c(Nc3cc(C)n(C)n3)nc21` [BMS-911543], the Kd in test [1], in test [2] and in test [3] was > 30 µM (inactive) in each case.
As for `COc1cc2ncnc(Oc3cccc(NC(=O)Nc4cc(C(C)(C)C(F)(F)F)on4)c3)c2cc1OC` [CEP-32496], the Kd in test [1], in test [2] and in test [3] was > 30 µM (inactive) each time.
Consider `Cc1cc(Nc2ncc(Cl)c(Nc3ccccc3S(=O)(=O)C(C)C)n2)c(OC(C)C)cc1C1CCNCC1` [CERITINIB], for which the Kd in test [1], in test [2] and in test [3] was > 30 µM (inactive) throughout.
Consider `COc1c(OCCCN2CCOCC2)ccc2c1N=C(NC(=O)c1cnc(N)nc1)N1CCN=C21` [COPANLISIB], for which the Kd in test [1], in test [2] and in test [3] was > 30 µM (inactive) in each case.
Take `COCC(=O)NC/C=C/c1ccc2ncnc(Nc3ccc(Oc4ccc(C)nc4)c(C)c3)c2c1` [CP-724714]: the Kd in test [1], in test [2] and in test [3] was > 30 µM (inactive) each time.
As for `C#Cc1cccc(Nc2ncnc3cc(OC)c(OCCCCCCC(=O)NO)cc23)c1` [CUDC-101], the Kd in test [1] was > 30 µM (inactive); in test [2] it was > 30 µM (inactive); in test [3], 0.482 µM (active).
With `CCS(=O)(=O)N1CCN(c2ccc(Nc3ncc(C(N)=O)c(NC4CC4)n3)cc2)CC1` [Cerdulatinib Hydrochloride], the Kd in test [1] is > 30 µM (inactive); in test [2] it was > 30 µM (inactive); in test [3], 0.552 µM (active).
As for `CC(C)(C)c1nc(-c2cccc(NS(=O)(=O)c3c(F)cccc3F)c2F)c(-c2ccnc(N)n2)s1` [DABRAFENIB], the Kd in test [2] and in test [3] was > 30 µM (inactive) each time.
With `CCn1cc(-c2ccnc3[nH]c(-c4cccc(CN(C)C)c4)cc23)c(-c2ccc(NC(=O)N(C)C)cc2)n1` [GSK-1070916], the Kd in test [1] and in test [2] was > 30 µM (inactive) each time.
On to `CCOc1cc2ncc(C#N)c(Nc3ccc(F)c(Cl)c3)c2cc1NC(=O)/C=C/CN(C)C` [PELITINIB], for which the Kd in test [2] was > 30 µM (inactive); in test [3], 0.117 µM (active).
For `CN1CCN(CCOc2cc(OC3CCOCC3)c3c(Nc4c(Cl)ccc5c4OCO5)ncnc3c2)CC1` [SARACATINIB], the Kd in test [1] and in test [2] was > 30 µM (inactive) each time.

The record behind these values is ChEMBL document CHEMBL3991601, “The target landscape of clinical kinase drugs” (Science, 2017).
